The values that follow are results of earlier work, collected in patent US20240316057A1 (priority 2021, published 2024).

For data set [1] the following is noted: as known to the skilled person.

As to `Cn1c(=O)c2c(ncn2C)n(C)c1=O` [Caffeine, 1,3,7-trimethylxanthine], the “efficacious plasma concentration range” value in data set [1] is 5 to 20 µM. On to `Cn1cnc2c1c(=O)[nH]c(=O)n2C` [Theobromine, 3,7-dimethylxanthine], for which the solubility in water result was “very slightly water-soluble”.
